Non-standard residues stand in square brackets, D forms with d. Residues, ends and D or L forms follow the SMILES beside them. *: point of attachment. Benzoyl(4-tBu) = CC(C)(C)c1ccc(C(=O)*)cc1; Lys(Et2) = CCN(CC)CCCC[C@H](N)C(=O)O
Key:
cPRC1-TetO-mESCs = assay: Chemical inhibition in cPRC1-TetO-mESCs (TetR-Cbx7 dual GFP/BFP reporter), flow cytometry without and with Dox; assay type: cell-based, mouse; details: for initiation of reporter gene silencing: TetR-Cbx7 tethered, absence of Dox; for maintenance of reporter gene silencing (repression): presence of Dox (1 μg/ml), increasing concentrations of compound
PRC2 = target: T1, PRC2 (Mus musculus, UniProt Q61188); assay: Immuno blot of H3K27me3, Ezh2 and Cbx7 in parental TetO-mESCs treated with GSK126; assay type: cell-based
T1 construct: endogenous in cells; host or cells: parental TetO-mESCs (mouse embryonic stem cells derived from haploid mESCs)
T1 sequence (Q61188 whole entry): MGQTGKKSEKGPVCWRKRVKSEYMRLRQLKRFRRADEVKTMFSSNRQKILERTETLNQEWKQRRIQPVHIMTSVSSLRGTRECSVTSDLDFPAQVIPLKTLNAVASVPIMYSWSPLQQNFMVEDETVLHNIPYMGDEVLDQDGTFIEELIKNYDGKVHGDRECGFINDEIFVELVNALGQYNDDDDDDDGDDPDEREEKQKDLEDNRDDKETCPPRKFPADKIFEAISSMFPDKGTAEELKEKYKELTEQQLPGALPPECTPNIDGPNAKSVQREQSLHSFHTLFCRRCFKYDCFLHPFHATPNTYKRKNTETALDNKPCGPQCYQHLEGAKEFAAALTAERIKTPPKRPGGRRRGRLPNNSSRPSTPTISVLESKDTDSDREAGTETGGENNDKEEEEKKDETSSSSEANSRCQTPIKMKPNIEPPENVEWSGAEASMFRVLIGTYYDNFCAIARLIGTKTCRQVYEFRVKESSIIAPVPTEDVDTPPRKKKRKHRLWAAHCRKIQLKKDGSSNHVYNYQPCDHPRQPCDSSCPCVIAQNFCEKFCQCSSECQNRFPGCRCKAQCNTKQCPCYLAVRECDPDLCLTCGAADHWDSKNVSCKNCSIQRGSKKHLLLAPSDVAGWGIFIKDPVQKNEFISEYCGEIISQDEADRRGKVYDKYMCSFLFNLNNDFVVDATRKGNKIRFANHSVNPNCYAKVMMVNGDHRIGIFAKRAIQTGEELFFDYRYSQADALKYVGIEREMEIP
T1 sequence (Q921E6 whole entry partner): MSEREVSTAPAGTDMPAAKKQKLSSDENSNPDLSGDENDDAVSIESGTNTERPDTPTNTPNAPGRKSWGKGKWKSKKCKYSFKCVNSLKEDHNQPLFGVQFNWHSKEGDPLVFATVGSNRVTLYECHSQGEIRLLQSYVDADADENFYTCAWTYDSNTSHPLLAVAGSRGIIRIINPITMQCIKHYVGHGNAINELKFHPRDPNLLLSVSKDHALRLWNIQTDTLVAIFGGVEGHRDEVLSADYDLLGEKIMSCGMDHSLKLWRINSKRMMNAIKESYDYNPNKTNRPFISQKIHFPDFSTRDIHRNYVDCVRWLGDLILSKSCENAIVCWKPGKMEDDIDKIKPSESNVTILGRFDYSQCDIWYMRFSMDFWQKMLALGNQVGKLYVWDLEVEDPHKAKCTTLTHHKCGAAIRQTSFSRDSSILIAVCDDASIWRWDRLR
T1 sequence (Q80U70 whole entry partner): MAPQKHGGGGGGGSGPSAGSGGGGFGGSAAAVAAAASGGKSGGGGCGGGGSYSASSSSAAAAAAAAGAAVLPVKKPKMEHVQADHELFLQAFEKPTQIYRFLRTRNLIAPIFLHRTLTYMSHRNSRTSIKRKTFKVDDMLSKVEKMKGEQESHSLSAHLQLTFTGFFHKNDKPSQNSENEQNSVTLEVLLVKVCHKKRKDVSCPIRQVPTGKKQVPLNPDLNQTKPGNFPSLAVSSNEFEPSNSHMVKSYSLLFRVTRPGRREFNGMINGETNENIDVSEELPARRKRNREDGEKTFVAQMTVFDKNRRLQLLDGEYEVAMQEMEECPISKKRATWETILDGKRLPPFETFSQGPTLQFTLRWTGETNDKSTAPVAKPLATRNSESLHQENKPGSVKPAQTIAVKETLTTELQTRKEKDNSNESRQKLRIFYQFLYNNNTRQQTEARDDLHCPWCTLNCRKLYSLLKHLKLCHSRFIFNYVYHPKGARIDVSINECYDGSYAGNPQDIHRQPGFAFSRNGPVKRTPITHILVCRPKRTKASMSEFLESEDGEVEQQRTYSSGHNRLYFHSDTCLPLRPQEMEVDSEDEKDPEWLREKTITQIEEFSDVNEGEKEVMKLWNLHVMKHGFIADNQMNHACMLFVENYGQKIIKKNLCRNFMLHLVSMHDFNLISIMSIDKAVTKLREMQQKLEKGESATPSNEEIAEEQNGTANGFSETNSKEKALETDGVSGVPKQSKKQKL
T1 sequence (Q60972 whole entry partner): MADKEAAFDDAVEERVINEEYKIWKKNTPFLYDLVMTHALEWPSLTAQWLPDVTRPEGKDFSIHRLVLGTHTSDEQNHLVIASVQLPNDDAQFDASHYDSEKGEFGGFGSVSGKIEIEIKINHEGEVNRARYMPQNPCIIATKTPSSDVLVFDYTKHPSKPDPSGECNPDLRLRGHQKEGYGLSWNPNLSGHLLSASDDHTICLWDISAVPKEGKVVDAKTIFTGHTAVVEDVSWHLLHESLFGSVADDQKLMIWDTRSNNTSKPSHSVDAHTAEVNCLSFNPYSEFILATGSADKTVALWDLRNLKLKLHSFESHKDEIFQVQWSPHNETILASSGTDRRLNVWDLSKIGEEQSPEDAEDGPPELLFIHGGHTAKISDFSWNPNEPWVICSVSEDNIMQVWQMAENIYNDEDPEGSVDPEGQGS
Description: Nuclear extract from 10×10^6 mESCs was obtained by lysis in Buffer A (final: 25 mM Hepes ph 7.6, 5 mM MgCl2, 25 mM KCl, 0.05 mM EDTA, 10% Glycerol, 1 mM DTT, 1 mM PMSF, 1× Complete Mini protease inhibitor) followed by collection in RIPA buffer (final: 150 mM NaCl, 1% triton, 0.5% sodium deoxy-cholate, 0.1% SDS, 50 mM Tris pH 8.0). Nuclear extracts were homogenized by sonication in a Diagenode Bioruptor and concentration was determined by Bradford assay (Biorad). 20 μg/lane total protein was run on Novex Life Technology NuPAGE 4-12% Bis-Tris gels in Invitrogen NuPAGE MES SDS Running Buffer and transferred on a Merck Chemicals Immobilon-P Membrane (PVDF […]). The membrane was blocked (5% non-fat dry milk in 1×PBS, 0.1% Tween 20) and incubated with the following primary antibodies (5% non-fat dry milk in 1×PBS, 0.1% Tween 20): H3K27me3 (Diagenode, C15410195), Cbx7 (Abcam, ab21873), RYBP (Sigma, PRS2227), H2AK119ub (Cell Signaling, D27C4), Ezh2 (Active Motif, 39901). Finally, the membrane was incubated with corresponding secondary HRP coupled antibodies (5% non-fat dry milk in 1×PBS, 0.1% Tween 20), developed using Clarity Western ECL Substrate (Biorad) and imaged by a ChemiDoc XRS+ Imaging system (Biorad).

| H3K27me3 by Western blot (PRC2; GSK126-treated parental mESCs (4 μM per FIG. 10A)) | inhibition of the catalytic activity of PRC2 (PRC2; parental TetO-mESCs, 4 μM GSK126, immuno blot) | endogenous PRC2 and cPRC1 stability (PRC2; parental TetO-mESCs, 4 μM GSK126, immuno blot of Ezh2 and Cbx7) | Compound | initiation of reporter gene silencing (cPRC1-TetO-mESCs) | maintenance of reporter gene silencing (repression) (cPRC1-TetO-mESCs) | reduction in silencing, distal BFP reporter compared with proximal GFP reporter (cPRC1-TetO-mESCs; presence of Dox) |
| --- | --- | --- | --- | --- | --- | --- |
|  |  |  | CCN(CC)CCCC[C@H](NC(=O)[C@H](CC(C)C)NC(=O)[C@H](C)NC(=O)[C@H](Cc1ccccc1)NC(=O)c1ccc(C(C)(C)C)cc1)C(=O)N[C@@H](CO)C(=O)OC [UNC3866] ({Benzoyl(4-tBu)}-FAL[Lys(Et2)]S-OMe) | Neither compound had a significant effect | disrupted only by UNC3866 treatment in a dose-dependent manner |  |
| undetectable | specific and reversible inhibition | without disrupting | CC[C@H](C)n1cc(C)c2c(C(=O)NCc3c(C)cc(C)[nH]c3=O)cc(-c3ccc(N4CCNCC4)nc3)cc21 [GSK126] | did not disrupt | reduced by GSK126-treatment in a dose-dependent manner | more prominent at the distal BFP reporter than the proximal GFP promoter |

Reference: US12018253B2, “Method of detecting Polycomb Repressive Complex activity” (IMBA—INSTITUT FÜR MOLEKULARE BIOTECHNOLOGIE GMBH, priority 2017, dated 2024)
